This is an account of results in ChEMBL document CHEMBL1201862, “PubChem BioAssay data set” (2004).

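Test compounds were applied to cells in 96-well plates for 48 hours at 5 doses. GI50 marks 50% less growth.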 The source made the active and inactive calls. Cut-off read from the data, not from the text of the source: active = GI50 up to about 1.1 µM and inactive = higher.

Among the test systems are TK-10; BT-549; SNB-19; Malme-3M; OVCAR-3; EKVX.
Common to all, as to experiment: NCI tumour cell line growth inhibition, 48 h

`C=C1C(=O)O[C@@H]2C=C(C)C3=CC(=O)[C@](C)(C[C@H](OC(=O)/C(C)=C\C)[C@@H]12)O3`: the GI50 in the assay on TK-10 was 826 nM (active); with BT-549 it was 493 nM (active); with SNB-19, 8470 nM (inactive); in the assay with Malme-3M, 1340 nM (inactive); in the assay on OVCAR-3 it was 491 nM (active); with EKVX, 2770 nM (inactive).
